Source: publication PMC10619132 (RSC Chemical Biology, 2023)
pIC50: −log10 of the molar value.

How the values were obtained:
[1] = target: YAP–TEAD4-YBD interaction (Homo sapiens, UniProt Q15561); assay: Primary FP screening assay, 1536-well; assay type: binding; details: read-out: IC50 in the primary FP screening assay
[2] = system: Gal4-TEAD4 fusion protein with YAP; assay: Gal4-TEAD4 / YAP UAS-LUC reporter assay in HEK293T cells; assay type: cell-based; details: 20 μM, 24 hours
YAP:TEAD1 complex = YAP:TEAD1 complex (Homo sapiens, UniProt P28347); assay: Anti-FLAG co-immunoprecipitation of HA-YAP in HEK293T cells; assay type: cell-based; details: 10 μM, 24 hours
Chain of YAP:TEAD1 complex (P28347 whole entry, one chain of several): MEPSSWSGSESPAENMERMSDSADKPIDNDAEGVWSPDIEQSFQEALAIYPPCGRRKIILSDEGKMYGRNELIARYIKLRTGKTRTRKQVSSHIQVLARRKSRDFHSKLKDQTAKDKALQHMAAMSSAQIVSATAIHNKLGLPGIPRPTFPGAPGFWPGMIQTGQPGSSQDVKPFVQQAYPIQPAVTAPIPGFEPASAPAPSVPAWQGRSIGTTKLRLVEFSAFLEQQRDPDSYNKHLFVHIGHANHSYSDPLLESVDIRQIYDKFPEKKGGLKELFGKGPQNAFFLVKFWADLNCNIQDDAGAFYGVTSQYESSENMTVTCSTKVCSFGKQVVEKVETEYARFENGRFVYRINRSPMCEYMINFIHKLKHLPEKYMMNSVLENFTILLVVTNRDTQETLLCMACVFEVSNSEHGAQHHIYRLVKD
YAP:TEAD2 complex = YAP:TEAD2 complex (Homo sapiens, UniProt Q15562); assay: as above; assay type: cell-based; details: 10 μM, 24 hours
Chain of YAP:TEAD2 complex (Q15562 whole entry, one chain of several): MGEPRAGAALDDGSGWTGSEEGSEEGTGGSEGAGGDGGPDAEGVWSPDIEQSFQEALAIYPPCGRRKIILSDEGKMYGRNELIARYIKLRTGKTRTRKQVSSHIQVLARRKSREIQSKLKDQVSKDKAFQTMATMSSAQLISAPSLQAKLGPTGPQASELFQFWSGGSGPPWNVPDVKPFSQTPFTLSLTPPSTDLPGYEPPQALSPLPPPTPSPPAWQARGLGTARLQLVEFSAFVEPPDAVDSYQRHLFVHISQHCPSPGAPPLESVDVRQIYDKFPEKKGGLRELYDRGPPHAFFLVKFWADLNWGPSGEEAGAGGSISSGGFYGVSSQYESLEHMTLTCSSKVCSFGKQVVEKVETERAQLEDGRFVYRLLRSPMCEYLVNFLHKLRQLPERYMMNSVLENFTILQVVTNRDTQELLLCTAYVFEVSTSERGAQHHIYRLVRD
YAP:TEAD4 complex = YAP:TEAD4 complex (Homo sapiens, UniProt Q15561); assay: as above; assay type: cell-based; details: 10 μM, 24 hours
Chain of YAP:TEAD4 complex (Q15561 whole entry, one chain of several): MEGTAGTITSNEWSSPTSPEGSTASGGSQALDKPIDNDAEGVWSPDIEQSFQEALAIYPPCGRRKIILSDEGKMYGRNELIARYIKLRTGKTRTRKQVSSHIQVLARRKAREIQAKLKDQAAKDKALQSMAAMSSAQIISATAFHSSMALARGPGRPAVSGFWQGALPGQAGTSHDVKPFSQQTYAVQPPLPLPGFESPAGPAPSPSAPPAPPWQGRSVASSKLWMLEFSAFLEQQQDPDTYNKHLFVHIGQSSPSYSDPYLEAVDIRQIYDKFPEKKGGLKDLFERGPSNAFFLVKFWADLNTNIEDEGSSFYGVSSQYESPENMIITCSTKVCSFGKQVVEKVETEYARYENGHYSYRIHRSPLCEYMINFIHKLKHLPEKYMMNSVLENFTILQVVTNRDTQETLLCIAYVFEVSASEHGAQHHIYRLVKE

Chain of YAP–TEAD4-YBD interaction (Q15561 216-434): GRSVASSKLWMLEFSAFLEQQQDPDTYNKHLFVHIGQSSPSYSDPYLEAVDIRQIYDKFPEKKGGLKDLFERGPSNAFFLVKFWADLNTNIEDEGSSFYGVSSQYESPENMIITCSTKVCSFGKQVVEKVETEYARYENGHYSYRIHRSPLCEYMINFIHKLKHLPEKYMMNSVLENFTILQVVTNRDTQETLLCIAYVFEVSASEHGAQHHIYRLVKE

pIC50 [1] | inhibition of HA-YAP association with FLAG-TEAD2 (YAP:TEAD2 complex) | inhibition of HA-YAP association with FLAG-TEAD4 (YAP:TEAD4 complex) | Molecule | decrease in YAP-driven luciferase signal [2] | inhibition of HA-YAP association with FLAG-TEAD1 (YAP:TEAD1 complex)
6.26 |  |  | Verteporfin [VTP] | 88% | 
 | lesser inhibitory effect | strongly inhibited | C=CC(=O)N1C[C@@H](n2cc(-c3cccnc3)nn2)[C@H](OCc2ccc(C(F)(F)F)cc2)C1 [MYF-03-69] |  | robustly inhibited the association with TEAD1 transgene
